Reference: patent publication US20050197350A1, “Novel quinoline, tetrahydroquinazoline, and pyrimidine derivatives and methods of treatment related to the use thereof” (TAISHO PHARMACEUTICAL CO., LTD., priority 2003, published 2005)

System: MCH receptors
Assay: MCH receptor activity class (method not given)
Conditions: activity class 1-3: percent of control at 10^-7 M or IC50

| SMILES | class |
| --- | --- |
| CN(C)c1ccnc(N[C@H]2CC[C@@H](NCCc3cccc(Cl)c3)CC2)n1 [compound 1514] | 3 (Class 3 The value of percent of control at 10^−7 M was more than 60% or the value of IC50 was more than 200 nM.) |
| CN(C)c1ccnc(N[C@H]2CC[C@@H](NCCOc3ccccc3Cl)CC2)n1 [compound 1515] | 3 (Class 3 The value of percent of control at 10^−7 M was more than 60% or the value of IC50 was more than 200 nM.) |
| COC(CNC1CCC(Nc2nccc(N(C)C)n2)CC1)c1ccccc1 (centres unmarked) [compound 1517] | 3 (Class 3 The value of percent of control at 10^−7 M was more than 60% or the value of IC50 was more than 200 nM.) |
| CN(C)c1ccnc(N[C@H]2CC[C@@H](NCCOc3ccc(Br)cc3)CC2)n1 [compound 1518] | 3 (Class 3 The value of percent of control at 10^−7 M was more than 60% or the value of IC50 was more than 200 nM.) |
| Cc1c(C)c(C)c(CNC2CCC(Nc3nccc(N(C)C)n3)CC2)c(C)c1C (centres unmarked) [compound 1519] | 3 (Class 3 The value of percent of control at 10^−7 M was more than 60% or the value of IC50 was more than 200 nM.) |
| CCOc1cccc(CN[C@H]2CC[C@@H](Nc3nccc(N(C)C)n3)CC2)c1 [compound 1520] | 3 (Class 3 The value of percent of control at 10^−7 M was more than 60% or the value of IC50 was more than 200 nM.) |
| CN(C)c1ccnc(N[C@H]2CC[C@@H](NC[C@@H](COCc3ccccc3)OCc3ccccc3)CC2)n1 [compound 1521] | 3 (Class 3 The value of percent of control at 10^−7 M was more than 60% or the value of IC50 was more than 200 nM.) |
| COc1cc2ccccc2cc1CN[C@H]1CC[C@@H](Nc2nccc(N(C)C)n2)CC1 [compound 1522] | 3 (Class 3 The value of percent of control at 10^−7 M was more than 60% or the value of IC50 was more than 200 nM.) |
| Cc1cccc(N(CCC#N)CCN[C@H]2CC[C@@H](Nc3nccc(N(C)C)n3)CC2)c1 [compound 1523] | 3 (Class 3 The value of percent of control at 10^−7 M was more than 60% or the value of IC50 was more than 200 nM.) |
| CN(C)c1ccnc(N[C@H]2CC[C@@H](NCCN(CCC#N)c3ccccc3)CC2)n1 [compound 1524] | 3 (Class 3 The value of percent of control at 10^−7 M was more than 60% or the value of IC50 was more than 200 nM.) |
| COc1ccc(CCCCNC[C@H]2CC[C@@H](Nc3nccc(N(C)C)n3)CC2)cc1 [compound 1525] | 3 (Class 3 The value of percent of control at 10^−7 M was more than 60% or the value of IC50 was more than 200 nM.) |
| CN(C)c1ccnc(N[C@H]2CC[C@@H](CNCCCCCCc3ccccc3)CC2)n1 [compound 1526] | 3 (Class 3 The value of percent of control at 10^−7 M was more than 60% or the value of IC50 was more than 200 nM.) |
| Cc1cc(C)c(CCNC[C@H]2CC[C@@H](Nc3nccc(N(C)C)n3)CC2)c(C)c1 [compound 1527] | 3 (Class 3 The value of percent of control at 10^−7 M was more than 60% or the value of IC50 was more than 200 nM.) |
| CN(C)c1ccnc(N[C@H]2CC[C@@H](CNCCCCCCCCc3ccccc3)CC2)n1 [compound 1528] | 3 (Class 3 The value of percent of control at 10^−7 M was more than 60% or the value of IC50 was more than 200 nM.) |
| CN(C)c1ccnc(N[C@H]2CC[C@@H](CNCCc3ccc(C(C)(C)C)cc3)CC2)n1 [compound 1529] | 3 (Class 3 The value of percent of control at 10^−7 M was more than 60% or the value of IC50 was more than 200 nM.) |
| CN(C)c1ccnc(N[C@H]2CC[C@@H](CNCCCC#Cc3ccccc3)CC2)n1 [compound 1530] | 3 (Class 3 The value of percent of control at 10^−7 M was more than 60% or the value of IC50 was more than 200 nM.) |

| SMILES | class |
| --- | --- |
| COc1ccccc1CCNC[C@H]1CC[C@@H](Nc2nccc(N(C)C)n2)CC1 [compound 1531] | 3 (Class 3 The value of percent of control at 10^−7 M was more than 60% or the value of IC50 was more than 200 nM.) |
| CN(C)c1ccnc(N[C@H]2CC[C@@H](CNCCCOc3ccccc3)CC2)n1 [compound 1532] | 3 (Class 3 The value of percent of control at 10^−7 M was more than 60% or the value of IC50 was more than 200 nM.) |
| CN(C)c1ccnc(N[C@H]2CC[C@@H](CNCc3c(F)c(F)cc(F)c3F)CC2)n1 [compound 1533] | 3 (Class 3 The value of percent of control at 10^−7 M was more than 60% or the value of IC50 was more than 200 nM.) |
| CN(C)c1ccnc(N[C@H]2CC[C@@H](CNCc3cc(Cl)ccc3Cl)CC2)n1 [compound 1534] | 3 (Class 3 The value of percent of control at 10^−7 M was more than 60% or the value of IC50 was more than 200 nM.) |
| COc1ccc(Cl)cc1CNC[C@H]1CC[C@@H](Nc2nccc(N(C)C)n2)CC1 [compound 1535] | 3 (Class 3 The value of percent of control at 10^−7 M was more than 60% or the value of IC50 was more than 200 nM.) |
| COc1cc(Cl)ccc1CNC[C@H]1CC[C@@H](Nc2nccc(N(C)C)n2)CC1 [compound 1536] | 3 (Class 3 The value of percent of control at 10^−7 M was more than 60% or the value of IC50 was more than 200 nM.) |
| Cc1ccc(CNC[C@H]2CC[C@@H](Nc3nccc(N(C)C)n3)CC2)cc1I [compound 1537] | 3 (Class 3 The value of percent of control at 10^−7 M was more than 60% or the value of IC50 was more than 200 nM.) |
| C[C@@H](CNC[C@H]1CC[C@@H](Nc2nccc(N(C)C)n2)CC1)N(Cc1ccccc1)Cc1ccccc1 [compound 1538] | 3 (Class 3 The value of percent of control at 10^−7 M was more than 60% or the value of IC50 was more than 200 nM.) |
| CN(C)c1cc(N[C@H]2CC[C@@H](NC(=O)OCCOCc3ccccc3)CC2)nc2ccccc12 [compound 1539] | 3 (Class 3 The value of percent of control at 10^−7 M was more than 60% or the value of IC50 was more than 200 nM.) |
| CN(C)c1cc(N[C@H]2CC[C@@H](NC(=O)OCC(C)(C)C)CC2)nc2ccccc12 [compound 1540] | 3 (Class 3 The value of percent of control at 10^−7 M was more than 60% or the value of IC50 was more than 200 nM.) |
| COc1cc(COC(=O)NC2CCC(Nc3cc(N(C)C)c4ccccc4n3)CC2)c([N+](=O)[O-])cc1OC (centres unmarked) [compound 1541, “[4-(4-Dimethylamino-quinolin-2-ylamino)-cyclohexyl]-carbamic acid 4,5-dimethoxy-2-nitro-benzyl ester] | 2 (Class 2: The value of percent of control at 10^−7 M was from 40% to 60% or the value of IC′50 was from 50 nM to 200 nM.) |
| CN(C)c1cc(N[C@H]2CC[C@@H](NC(=O)Oc3cccc(C(F)(F)F)c3)CC2)nc2ccccc12 [compound 1542] | 3 (Class 3 The value of percent of control at 10^−7 M was more than 60% or the value of IC50 was more than 200 nM.) |
| CN(C)c1cc(N[C@H]2CC[C@@H](NC(=O)Oc3ccc(Br)cc3)CC2)nc2ccccc12 [compound 1543] | 3 (Class 3 The value of percent of control at 10^−7 M was more than 60% or the value of IC50 was more than 200 nM.) |
| COc1ccccc1OC(=O)N[C@H]1CC[C@@H](Nc2cc(N(C)C)c3ccccc3n2)CC1 [compound 1544] | 3 (Class 3 The value of percent of control at 10^−7 M was more than 60% or the value of IC50 was more than 200 nM.) |
| COCCOC(=O)N[C@H]1CC[C@@H](Nc2cc(N(C)C)c3ccccc3n2)CC1 [compound 1545] | 3 (Class 3 The value of percent of control at 10^−7 M was more than 60% or the value of IC50 was more than 200 nM.) |
| CCCCCCCCOC(=O)N[C@H]1CC[C@@H](Nc2cc(N(C)C)c3ccccc3n2)CC1 [compound 1546] | 3 (Class 3 The value of percent of control at 10^−7 M was more than 60% or the value of IC50 was more than 200 nM.) |
